According to US4642340A, “Stable compounds of glucosamine sulphate” (Rotta Research Laboratorium S.p.A., priority 1981, dated 1987):
Read-outs that look alike come from different tables or passages of the source.

Experiments:
[1] = test system: granuloma from cotton pellets; assay: Anti-inflammatory activity, granuloma induced by cotton pellets; assay type: in vivo, female albino rats of the Sprague Dawley strain; details: 4 days; for Average dry weight of the granuloma (average ± s.e.): in mg (unit assumed)
Description: The test consists of evaluating the capacity of the substances under examination to inhibit the formation of granuloma following the subcutaneous implantation of extraneous bodies (in this case, cotton pellets). […] One group of animals was used as a control. […] After the subcutaneous implant of 2 cotton pellets each having a weight of 20 mg into the dorsal region, the animals were administered daily, for 4 consecutive days, with the substances under examination in the doses given above.

physchem = details: solid storage, Titre of glucosamine
Acute toxicity in rats = assay: Acute toxicity in rats; design: species or system Sprague Dawley albino rats; details: rat, in vivo; for LD50 at 240 h: 10 days observation, read-out: DL50
Excerpt: Sprague Dawley albino rats having an average weight of about 150 g, subdivided into groups of 10 animals (5 males and 5 females) were used for each dose and for each method of administration.
The methods of administration were: oral by means of a gastric probe, intramuscular and endovenous into the caudal vein.
(§1) The observation time after administration was 10 days.

mice-embryo fibroblast [2] = assay: Stimulation of the production of soluble GAG in mice-embryo fibroblast cultures, uptake of ^35 S; assay type: cell-based, mice (strain C57 BL/6 stCrl); details: Mus musculus, Fibroblast, 24 h, read-out: Δ % over non-treated controls, soluble GAG
Description: (§2) For this purpose, primary cultures of mice-embryo fibroblasts (strain C57 BL/6 stCrl) were prepared by mechanical and enzymatic dissociation (in Trypsin Versene mixture-Microbiological Associates) of the embryos taken from the mother on the 18th day of pregnancy. The culture medium is the Eagle medium modified by Dulbecco and supplemented with 15% of calf foetus serum. The incubation atmosphere consists of 5% of carbon dioxide in air at 37° C. 24 hours after innoculation, the medium is replaced by a new medium containing the drug under examination and the radioactive precursor (Na2^35 SO4) for the measurement of the synthesis both of soluble and tissue-bound GAG; the culture is left to incubate for a further 24 hours and then the culture medium (containing the soluble GAG) and fibroblasts (containing the tissue-bound GAG) are separated.
(§3) The soluble GAG are isolated from the culture medium by precipitation with a solution of 5% trichloroacetic acid in ice-water while the fibroblast residues, containing the tissue-bound GAG, after repeated washings with physiological solutions, are dissolved in [sequence] or VERSENE.
(§4) The quantity of ^35 S incorporated both in the soluble GAG and in the tissue-bound GAG are evaluated by the usual scintillation methods and expressed in cpm (counts per minute).
(§5) The tests were carried out five times for each sample in order to allow the results to be evaluated statistically.

Acute toxicity in mice = assay: Acute toxicity in mice; design: species or system Swiss NMRI mice; details: mouse, in vivo; for LD50 at 240 h: 10 days observation, read-out: DL50
Excerpt: Swiss NMRI mice having an average weight of 20±2 g, subdivided in groups of 10 animals (5 females and 5 males) were used for each dose and for each method of administration.
The methods of administration were: oral by means of gastric probe, intramuscular and endovenous into the caudal vein.
as §1

mice-embryo fibroblast [3] = assay: Stimulation of the production of tissue-bound GAG in mice-embryo fibroblast cultures, uptake of ^35 S; assay type: cell-based, mice (strain C57 BL/6 stCrl); details: Mus musculus, Fibroblast, 24 h, read-out: Δ % over non-treated controls, tissue-bound GAG
Description: as §2, §3, §4, §5

[4] = im, intramuscular, max. dose 3000 mg/kg
[5] = iv, endovenous, max. dose 1500 mg/kg

For N[C@H]1C(O)O[C@H](CO)[C@@H](O)[C@@H]1O.O=S(=O)(O)O (stereo partly shown) [Glucosamine sulphate, glucosamine sulphate], the “% Inhibition of granuloma” value ([1]; 300 mg/kg/os daily) was 40.9%, the “Average dry weight of the granuloma (average ± s.e.)” value ([1]; 300 mg/kg/os daily) was 91.2 ± 10.8 and the “% Inhibition of granuloma” value ([1]; 600 mg/kg/os daily) was 54.1%. For the same molecule, the “Average dry weight of the granuloma (average ± s.e.)” value ([1]; 600 mg/kg/os daily) was 70.7 ± 7.9, the remaining at 8 h (physchem) was 95.8% and the remaining at 16 h (physchem) was 73.8%. The remaining at 72 h (physchem) was 98.4%, the remaining at 168 h (physchem) was 98.3% and the remaining at 360 h (physchem) was 100%. The remaining at 720 h (physchem) was 99.4%, the remaining at 1440 h (physchem) was 98.1% and the LD50 at 240 h (Acute toxicity in rats; im, intramuscular) was over 3000 mg/kg. The mortality at 240 h (Acute toxicity in rats; [4]) was 0%, the LD50 at 240 h (Acute toxicity in rats; iv, endovenous) was over 1500 mg/kg and the mortality at 240 h (Acute toxicity in rats; [5]) was 0%. The LD50 at 240 h (Acute toxicity in rats; oral) was over 5000 mg/kg, the mortality at 240 h (Acute toxicity in rats; oral, max. dose 5000 mg/kg) was 0% and the Appearance (15° C., 30% R.H., 0 days) was 1. The Titre of glucosamine (15° C., 30% R.H., 0 days) was 98.7%, the Appearance (15° C., 30% R.H., 7 days) was 1 and the Appearance (15° C., 30% R.H., 15 days) was 1. The Appearance (15° C., 30% R.H., 30 days) was 1, the Appearance (15° C., 30% R.H., 60 days) was 1 and the Appearance (15° C., 30% R.H., 120 days) was 2. The Appearance (15° C., 30% R.H., 360 days) was 2-3, the Appearance (15° C., 45% R.H., 0 days) was 1 and the Appearance (15° C., 45% R.H., 7 days) was 1. It also gave an Appearance (15° C., 45% R.H., 15 days) of 1, an Appearance (15° C., 45% R.H., 30 days) of 1 and an Appearance (15° C., 45% R.H., 60 days) of 2. For the same molecule, the Appearance (15° C., 45% R.H., 120 days) was 4, the Appearance (15° C., 45% R.H., 360 days) was 6 and the Appearance (15° C., 60% R.H., 0 days) was 1. The Appearance (15° C., 60% R.H., 3 days) was 1, the Appearance (15° C., 60% R.H., 6 days) was 3 and the Appearance (15° C., 60% R.H., 12 days) was 5. For the same molecule, the Appearance (15° C., 60% R.H., 24 days) was 6, the Appearance (15° C., 60% R.H., 36 days) was 6 and the Appearance (15° C., 60% R.H., 48 days) was 6. It also gave an Appearance (25° C., 30% R.H., 0 days) of 1, a Titre of glucosamine (25° C., 30% R.H., 0 days) of 99.6% and an Appearance (25° C., 30% R.H., 7 days) of 1. It also gave an Appearance (25° C., 30% R.H., 15 days) of 1, an Appearance (25° C., 30% R.H., 30 days) of 1 and an Appearance (25° C., 30% R.H., 60 days) of 2. The Appearance (25° C., 30% R.H., 120 days) was 3, the Appearance (25° C., 30% R.H., 360 days) was 4 and the Appearance (25° C., 45% R.H., 0 days) was 1. The Titre of glucosamine (25° C., 45% R.H., 0 days) was 100.5%, the Appearance (25° C., 45% R.H., 3 days) was 1 and the Appearance (25° C., 45% R.H., 6 days) was 1. It also gave an Appearance (25° C., 45% R.H., 12 days) of 2, an Appearance (25° C., 45% R.H., 24 days) of 3 and an Appearance (25° C., 45% R.H., 36 days) of 5. The Appearance (25° C., 45% R.H., 48 days) was 6, the “Time to complete decomposition” value (25° C., 60% R.H.) was 36 h and the Appearance (25° C., 60% R.H., 0 hours) was 1. For the same molecule, the Appearance (25° C., 60% R.H., 2 hours) was 1, the Appearance (25° C., 60% R.H., 4 hours) was 1 and the Appearance (25° C., 60% R.H., 8 hours) was 2. It also gave an Appearance (25° C., 60% R.H., 16 hours) of 3, an Appearance (25° C., 60% R.H., 24 hours) of 4 and an Appearance (25° C., 60% R.H., 36 hours) of 6. The Titre of glucosamine (solid storage, 24 h) was 44.6%, the Titre of glucosamine (solid storage, 72 h) was 100.3% and the Titre of glucosamine (solid storage, 576 h) was 74.5%. The Titre of glucosamine (solid storage, 864 h) was 29.6%, the activation at 10 µg/mL (mice-embryo fibroblast [2]) was 24.3% and the activation at 50 µg/mL (mice-embryo fibroblast [2]) was 96%. The activation at 100 µg/mL (mice-embryo fibroblast [2]) was 71.2%, the LD50 at 240 h (Acute toxicity in mice; im, intramuscular) was over 3000 mg/kg and the mortality at 240 h (Acute toxicity in mice; [4]) was 0%. It also gave an LD50 at 240 h (Acute toxicity in mice; iv, endovenous) of over 1500 mg/kg, a mortality at 240 h (Acute toxicity in mice; [5]) of 0% and an LD50 at 240 h (Acute toxicity in mice; oral) of over 5000 mg/kg. The mortality at 240 h (Acute toxicity in mice; oral, max. dose 5000 mg/kg) was 0%, the activation at 10 µg/mL (mice-embryo fibroblast [3]) was 32.7% and the activation at 50 µg/mL (mice-embryo fibroblast [3]) was 75.6%. The activation at 100 µg/mL (mice-embryo fibroblast [3]) was 94.7%.
